In ChEMBL document CHEMBL5465560, “Selectivity Literature for EUbOPEN Chemogenomic Library” (2024):

Key:
[1] = target: 5'-AMP-activated protein kinase catalytic subunit alpha-2 (Homo sapiens) (UniProt P54646); assay: Selectivity interaction (Kinase panel (KiNativ target engagement assay in Jurkat cells)) EUB0001635a PRKAA2; assay type: cell-based; conditions: at 1 µM
[2] = target: Non-receptor tyrosine-protein kinase TYK2 (Homo sapiens, UniProt P29597); assay: Selectivity interaction (KinomeScan (DiscoverX)) EUB0000229b TYK2; conditions: at 10 µM
[3] = target: T1, Serine/threonine-protein kinase BRSK1 (Homo sapiens) (UniProt Q8TDC3); assay: Selectivity interaction (KinomeScan (DiscoverX)) EUB0000045b BRSK1
T1 sequence (whole entry): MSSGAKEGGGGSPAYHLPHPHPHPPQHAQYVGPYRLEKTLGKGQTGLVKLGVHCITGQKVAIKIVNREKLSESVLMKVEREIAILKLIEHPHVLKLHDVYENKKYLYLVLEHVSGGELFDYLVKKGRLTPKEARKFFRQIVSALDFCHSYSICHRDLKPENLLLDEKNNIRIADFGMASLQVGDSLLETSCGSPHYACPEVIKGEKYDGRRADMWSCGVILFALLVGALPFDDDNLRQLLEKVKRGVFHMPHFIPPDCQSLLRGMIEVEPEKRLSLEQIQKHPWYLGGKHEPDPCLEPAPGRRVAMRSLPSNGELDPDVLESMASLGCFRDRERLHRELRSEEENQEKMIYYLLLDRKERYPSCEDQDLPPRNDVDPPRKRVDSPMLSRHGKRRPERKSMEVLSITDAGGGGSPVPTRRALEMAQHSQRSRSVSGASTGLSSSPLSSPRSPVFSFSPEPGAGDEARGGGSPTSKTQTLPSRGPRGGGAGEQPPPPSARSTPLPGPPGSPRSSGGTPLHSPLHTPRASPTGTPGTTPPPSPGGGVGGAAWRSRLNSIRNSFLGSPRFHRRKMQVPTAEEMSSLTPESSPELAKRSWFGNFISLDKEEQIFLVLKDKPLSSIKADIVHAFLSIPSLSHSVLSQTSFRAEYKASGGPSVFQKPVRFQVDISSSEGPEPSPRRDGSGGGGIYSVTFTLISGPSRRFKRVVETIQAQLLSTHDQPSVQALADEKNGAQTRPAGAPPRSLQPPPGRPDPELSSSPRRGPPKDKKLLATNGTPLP

[4] = target: T2, Serine/threonine-protein kinase NLK (Homo sapiens) (UniProt Q9UBE8); assay: Selectivity interaction (KinomeScan (DiscoverX)) EUB0000045b NLK
T2 sequence (whole entry): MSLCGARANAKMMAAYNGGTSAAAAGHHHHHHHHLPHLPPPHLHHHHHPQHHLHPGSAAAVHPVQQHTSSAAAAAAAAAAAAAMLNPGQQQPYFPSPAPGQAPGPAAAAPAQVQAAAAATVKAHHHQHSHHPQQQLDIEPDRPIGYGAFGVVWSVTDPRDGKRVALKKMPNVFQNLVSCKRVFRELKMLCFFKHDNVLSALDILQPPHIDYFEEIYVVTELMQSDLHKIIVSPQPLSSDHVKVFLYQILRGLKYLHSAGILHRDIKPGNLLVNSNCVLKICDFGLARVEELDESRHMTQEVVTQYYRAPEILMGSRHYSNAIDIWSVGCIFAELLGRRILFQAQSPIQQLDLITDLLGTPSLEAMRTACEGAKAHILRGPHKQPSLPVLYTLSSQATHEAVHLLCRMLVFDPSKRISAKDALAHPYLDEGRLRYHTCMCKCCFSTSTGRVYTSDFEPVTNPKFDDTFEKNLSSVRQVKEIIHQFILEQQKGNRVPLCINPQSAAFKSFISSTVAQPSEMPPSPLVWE

[5] = target: Dual specificity tyrosine-phosphorylation-regulated kinase 1B (Homo sapiens, UniProt Q9Y463); assay: Selectivity interaction (KinomeScan (DiscoverX)) EUB0001079a DYRK1B; conditions: at 1 µM
[6] = target: Serine/threonine-protein kinase SIK1 (Homo sapiens) (UniProt P57059); assay: Selectivity interaction (KinomeScan (DiscoverX)) EUB0000666a SIK1; conditions: at 10 µM
[7] = target: T3, Protein kinase C iota type (Homo sapiens) (UniProt P41743); assay: Selectivity interaction (KinomeScan (DiscoverX)) EUB0001049a PRKCI; conditions: at 1 µM
T3 sequence (whole entry): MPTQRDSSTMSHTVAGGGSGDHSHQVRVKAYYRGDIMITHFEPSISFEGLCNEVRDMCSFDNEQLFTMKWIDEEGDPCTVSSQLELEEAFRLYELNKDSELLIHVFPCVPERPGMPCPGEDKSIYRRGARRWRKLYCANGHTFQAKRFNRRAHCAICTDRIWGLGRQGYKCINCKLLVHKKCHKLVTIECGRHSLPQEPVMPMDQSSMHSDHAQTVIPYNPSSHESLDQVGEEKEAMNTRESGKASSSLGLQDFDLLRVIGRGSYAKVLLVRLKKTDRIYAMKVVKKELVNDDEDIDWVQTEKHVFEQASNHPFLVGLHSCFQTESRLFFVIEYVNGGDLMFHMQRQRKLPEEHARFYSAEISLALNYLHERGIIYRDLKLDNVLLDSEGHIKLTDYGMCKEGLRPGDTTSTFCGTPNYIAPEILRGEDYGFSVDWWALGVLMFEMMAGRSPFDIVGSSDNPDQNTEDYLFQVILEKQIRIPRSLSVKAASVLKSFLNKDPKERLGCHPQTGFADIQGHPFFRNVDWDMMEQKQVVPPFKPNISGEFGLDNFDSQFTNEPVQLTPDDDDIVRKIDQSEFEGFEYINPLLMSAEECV

[8] = target: RAC-alpha serine/threonine-protein kinase (Homo sapiens, UniProt P31749); assay: Selectivity interaction (Millipore kinase profiler) EUB0000124b AKT1; conditions: at 10 µM
[9] = target: Ephrin type-A receptor 5 (Homo sapiens) (UniProt P54756); assay: Selectivity interaction (KinomeScan (DiscoverX)) EUB0001619a EPHA5; conditions: at 1 µM
[10] = target: T4, Serine/threonine-protein kinase Sgk3 (Homo sapiens) (UniProt Q96BR1); assay: Selectivity interaction (Kinase panel (Invitrogen)) EUB0000639a SGK3; conditions: at 200 nM
T4 sequence (whole entry): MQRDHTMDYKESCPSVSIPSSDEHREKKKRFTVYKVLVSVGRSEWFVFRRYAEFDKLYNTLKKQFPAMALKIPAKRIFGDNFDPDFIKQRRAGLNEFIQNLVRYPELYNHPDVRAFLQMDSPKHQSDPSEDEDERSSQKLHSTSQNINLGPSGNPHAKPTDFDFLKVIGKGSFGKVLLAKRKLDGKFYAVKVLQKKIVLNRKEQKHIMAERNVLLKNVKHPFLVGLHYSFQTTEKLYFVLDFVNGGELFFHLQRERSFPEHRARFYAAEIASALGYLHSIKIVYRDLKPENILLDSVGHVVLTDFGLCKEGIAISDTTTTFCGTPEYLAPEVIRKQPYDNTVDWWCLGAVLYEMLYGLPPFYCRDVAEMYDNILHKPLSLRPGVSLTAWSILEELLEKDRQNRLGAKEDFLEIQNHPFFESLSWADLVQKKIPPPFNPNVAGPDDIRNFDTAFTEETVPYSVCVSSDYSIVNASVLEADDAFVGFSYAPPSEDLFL

Sequence of RAC-alpha serine/threonine-protein kinase (P31749 whole entry): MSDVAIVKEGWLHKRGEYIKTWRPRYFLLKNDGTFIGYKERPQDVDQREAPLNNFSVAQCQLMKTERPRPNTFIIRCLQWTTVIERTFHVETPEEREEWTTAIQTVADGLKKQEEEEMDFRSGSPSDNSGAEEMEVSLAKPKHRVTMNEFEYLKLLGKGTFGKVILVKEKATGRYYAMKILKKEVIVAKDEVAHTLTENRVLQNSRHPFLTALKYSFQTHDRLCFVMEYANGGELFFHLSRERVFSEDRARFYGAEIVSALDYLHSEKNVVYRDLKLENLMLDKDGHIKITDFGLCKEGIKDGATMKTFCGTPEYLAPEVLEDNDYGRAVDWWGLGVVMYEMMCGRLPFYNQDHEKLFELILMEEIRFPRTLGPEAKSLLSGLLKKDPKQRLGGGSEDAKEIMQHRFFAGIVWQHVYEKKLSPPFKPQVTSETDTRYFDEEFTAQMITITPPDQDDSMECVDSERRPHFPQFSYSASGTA
Sequence of 5'-AMP-activated protein kinase catalytic subunit alpha-2 (Homo sapiens) (P54646 whole entry, looked up): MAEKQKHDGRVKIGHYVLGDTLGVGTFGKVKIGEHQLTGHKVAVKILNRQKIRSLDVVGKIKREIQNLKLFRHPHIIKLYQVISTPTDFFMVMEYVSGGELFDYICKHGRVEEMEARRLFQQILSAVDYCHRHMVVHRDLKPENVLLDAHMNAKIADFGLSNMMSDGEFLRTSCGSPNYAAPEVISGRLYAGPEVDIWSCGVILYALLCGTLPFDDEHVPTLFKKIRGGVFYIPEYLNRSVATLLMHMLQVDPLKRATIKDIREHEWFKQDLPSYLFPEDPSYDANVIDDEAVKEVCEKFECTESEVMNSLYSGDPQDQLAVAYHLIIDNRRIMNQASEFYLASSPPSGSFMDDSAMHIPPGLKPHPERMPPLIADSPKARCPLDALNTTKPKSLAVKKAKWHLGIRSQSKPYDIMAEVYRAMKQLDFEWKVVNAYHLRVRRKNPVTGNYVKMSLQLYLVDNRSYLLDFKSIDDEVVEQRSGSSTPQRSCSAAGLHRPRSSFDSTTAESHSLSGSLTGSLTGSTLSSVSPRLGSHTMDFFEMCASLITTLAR
Sequence of Serine/threonine-protein kinase SIK1 (Homo sapiens) (P57059 whole entry): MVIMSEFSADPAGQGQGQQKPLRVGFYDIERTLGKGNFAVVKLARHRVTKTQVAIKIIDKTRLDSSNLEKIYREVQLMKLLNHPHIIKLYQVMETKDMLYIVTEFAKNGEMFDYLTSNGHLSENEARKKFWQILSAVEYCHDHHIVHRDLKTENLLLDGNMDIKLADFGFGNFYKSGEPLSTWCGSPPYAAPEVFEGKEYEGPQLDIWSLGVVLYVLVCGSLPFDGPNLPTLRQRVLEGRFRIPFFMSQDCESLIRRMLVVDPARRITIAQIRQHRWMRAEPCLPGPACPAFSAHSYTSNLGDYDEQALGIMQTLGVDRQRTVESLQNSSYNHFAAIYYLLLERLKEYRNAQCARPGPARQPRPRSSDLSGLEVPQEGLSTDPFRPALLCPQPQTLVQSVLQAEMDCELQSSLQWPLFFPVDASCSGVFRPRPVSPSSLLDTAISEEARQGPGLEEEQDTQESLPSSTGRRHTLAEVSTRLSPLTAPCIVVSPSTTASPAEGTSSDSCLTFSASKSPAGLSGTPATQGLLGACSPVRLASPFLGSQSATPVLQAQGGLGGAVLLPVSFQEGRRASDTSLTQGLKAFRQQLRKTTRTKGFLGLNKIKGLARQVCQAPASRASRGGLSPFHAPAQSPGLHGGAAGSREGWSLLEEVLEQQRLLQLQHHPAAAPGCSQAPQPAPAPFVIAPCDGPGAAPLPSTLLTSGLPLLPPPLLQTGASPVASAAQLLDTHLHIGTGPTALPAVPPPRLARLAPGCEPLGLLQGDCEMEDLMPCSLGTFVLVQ
Sequence of Non-receptor tyrosine-protein kinase TYK2 (P29597 whole entry): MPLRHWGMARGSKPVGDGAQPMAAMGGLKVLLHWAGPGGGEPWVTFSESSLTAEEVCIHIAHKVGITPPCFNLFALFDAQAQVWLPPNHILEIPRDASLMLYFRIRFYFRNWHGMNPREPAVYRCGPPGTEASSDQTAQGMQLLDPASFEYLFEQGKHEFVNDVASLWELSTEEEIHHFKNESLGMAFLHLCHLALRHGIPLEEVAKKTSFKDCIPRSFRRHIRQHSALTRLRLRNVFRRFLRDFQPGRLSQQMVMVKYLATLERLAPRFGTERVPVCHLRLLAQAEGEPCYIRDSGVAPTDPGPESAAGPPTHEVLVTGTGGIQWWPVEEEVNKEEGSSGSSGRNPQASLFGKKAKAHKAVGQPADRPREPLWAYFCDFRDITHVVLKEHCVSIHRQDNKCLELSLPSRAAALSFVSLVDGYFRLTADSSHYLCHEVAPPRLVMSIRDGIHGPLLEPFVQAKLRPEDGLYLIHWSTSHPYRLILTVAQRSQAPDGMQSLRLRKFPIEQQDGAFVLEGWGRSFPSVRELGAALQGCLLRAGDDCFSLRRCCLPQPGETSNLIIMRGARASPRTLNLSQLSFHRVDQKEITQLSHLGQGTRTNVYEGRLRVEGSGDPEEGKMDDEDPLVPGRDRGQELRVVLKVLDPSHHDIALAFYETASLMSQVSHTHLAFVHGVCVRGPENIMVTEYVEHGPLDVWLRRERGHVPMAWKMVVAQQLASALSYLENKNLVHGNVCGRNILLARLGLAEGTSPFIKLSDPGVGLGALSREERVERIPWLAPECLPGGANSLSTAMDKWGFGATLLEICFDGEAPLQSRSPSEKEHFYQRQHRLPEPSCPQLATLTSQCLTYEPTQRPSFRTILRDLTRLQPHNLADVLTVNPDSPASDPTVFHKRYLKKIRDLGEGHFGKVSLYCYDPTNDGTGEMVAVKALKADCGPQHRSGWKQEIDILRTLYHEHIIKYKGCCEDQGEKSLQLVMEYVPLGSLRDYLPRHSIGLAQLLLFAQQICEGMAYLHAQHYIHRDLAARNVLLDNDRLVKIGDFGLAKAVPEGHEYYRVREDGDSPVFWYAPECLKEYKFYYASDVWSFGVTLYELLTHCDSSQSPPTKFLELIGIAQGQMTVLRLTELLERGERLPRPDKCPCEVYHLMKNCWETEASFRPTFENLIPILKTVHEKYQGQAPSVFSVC
Sequence of Ephrin type-A receptor 5 (Homo sapiens) (P54756 whole entry): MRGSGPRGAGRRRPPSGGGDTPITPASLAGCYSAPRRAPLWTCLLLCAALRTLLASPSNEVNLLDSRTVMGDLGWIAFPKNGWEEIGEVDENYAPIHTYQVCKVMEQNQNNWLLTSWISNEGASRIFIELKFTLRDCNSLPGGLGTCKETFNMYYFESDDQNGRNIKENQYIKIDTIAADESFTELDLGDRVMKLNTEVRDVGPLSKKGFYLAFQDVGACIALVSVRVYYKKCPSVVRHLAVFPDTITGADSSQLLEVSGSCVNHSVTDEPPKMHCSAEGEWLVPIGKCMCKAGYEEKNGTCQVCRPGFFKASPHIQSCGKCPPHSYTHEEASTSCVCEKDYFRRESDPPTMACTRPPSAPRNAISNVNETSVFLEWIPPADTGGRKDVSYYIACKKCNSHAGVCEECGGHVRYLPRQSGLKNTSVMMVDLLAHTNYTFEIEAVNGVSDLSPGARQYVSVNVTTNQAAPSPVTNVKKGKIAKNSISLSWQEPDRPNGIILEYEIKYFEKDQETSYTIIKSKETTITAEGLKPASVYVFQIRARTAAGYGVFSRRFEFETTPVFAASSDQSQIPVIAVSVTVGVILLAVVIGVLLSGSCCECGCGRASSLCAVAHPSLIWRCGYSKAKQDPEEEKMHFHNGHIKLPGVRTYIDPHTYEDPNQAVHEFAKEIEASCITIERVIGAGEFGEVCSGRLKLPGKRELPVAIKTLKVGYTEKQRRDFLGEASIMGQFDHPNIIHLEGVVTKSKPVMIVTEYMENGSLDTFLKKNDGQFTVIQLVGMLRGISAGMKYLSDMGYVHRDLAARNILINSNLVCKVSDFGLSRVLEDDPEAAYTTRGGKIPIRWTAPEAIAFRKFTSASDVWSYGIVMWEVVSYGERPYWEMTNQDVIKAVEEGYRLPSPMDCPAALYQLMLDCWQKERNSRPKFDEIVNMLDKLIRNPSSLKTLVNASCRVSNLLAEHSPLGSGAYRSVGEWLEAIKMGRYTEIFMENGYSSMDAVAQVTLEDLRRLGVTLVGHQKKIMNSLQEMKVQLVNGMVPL
Sequence of Dual specificity tyrosine-phosphorylation-regulated kinase 1B (Q9Y463 whole entry, looked up): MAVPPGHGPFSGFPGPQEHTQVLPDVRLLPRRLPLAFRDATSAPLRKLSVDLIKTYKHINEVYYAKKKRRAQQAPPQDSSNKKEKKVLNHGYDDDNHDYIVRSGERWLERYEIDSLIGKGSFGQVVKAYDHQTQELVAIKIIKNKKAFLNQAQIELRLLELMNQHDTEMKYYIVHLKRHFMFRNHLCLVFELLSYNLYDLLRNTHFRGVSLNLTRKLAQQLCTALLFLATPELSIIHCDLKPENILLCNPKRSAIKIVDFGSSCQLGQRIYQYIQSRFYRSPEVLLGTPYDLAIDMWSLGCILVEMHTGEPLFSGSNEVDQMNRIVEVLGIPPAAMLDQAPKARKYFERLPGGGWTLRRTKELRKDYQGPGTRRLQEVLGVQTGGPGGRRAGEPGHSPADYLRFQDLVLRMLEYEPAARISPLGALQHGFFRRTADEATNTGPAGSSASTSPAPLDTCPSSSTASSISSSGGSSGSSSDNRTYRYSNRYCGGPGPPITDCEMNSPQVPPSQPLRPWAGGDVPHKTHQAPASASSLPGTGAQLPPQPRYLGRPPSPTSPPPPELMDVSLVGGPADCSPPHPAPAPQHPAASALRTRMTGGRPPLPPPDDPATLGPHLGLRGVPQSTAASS

**Q.** For `C=CC(=O)Nc1ccc(C(=O)Nc2[nH]nc3c2CN(C(=O)N[C@H](CN(C)C)c2ccccc2)C3(C)C)cc1`, which % of engagement [1] is on record?
**A.** The % of engagement was 53.5%.

**Q.** Which % binding [2] does the source give for `COc1cc(N(C)c2ccnc3ccc(C(F)(F)F)cc23)cc(OC)c1OC` here?
**A.** Its % binding is 99%.

**Q.** `C=CC(=O)Nc1cc(-n2c(=O)ccc3cnc4ccc(-c5ccc(NS(C)(=O)=O)cc5)cc4c32)ccc1C` was tested. Which % of control ([3]; at 1 µM) did it give?
**A.** Its % of control is 100%.

**Q.** And the % of control ([3]; at 10 µM)?
**A.** The % of control was 97%.

**Q.** And the % of control ([4]; at 1 µM)?
**A.** The % of control was 100%.

**Q.** What about the % of control ([4]; at 10 µM) of the same molecule?
**A.** Its % of control is 100%.

**Q.** `Nc1cnc(N2CCc3cc(S(=O)(=O)Nc4c(F)cc(Cl)cc4F)cc(N4CCCC4=O)c32)nc1` [TP-020n] was tested. Which % of control [5] did it give?
**A.** The % of control was 100%.

**Q.** Which % of control [6] does the source give for `O=C(NOC[C@H](O)CO)c1ccc(F)c(F)c1Nc1ccc(I)cc1F` here?
**A.** Its % of control is 100%.

**Q.** Which % of control [7] does the source give for `COc1cc(Nc2nc(C)cc(-c3cnn4nc(OC)ccc34)n2)cc(C(F)(F)F)c1` here?
**A.** Its % of control is 79%.

**Q.** `CC(=O)Nc1cccc(-n2c(=O)n(C3CC3)c(=O)c3c(Nc4ccc(I)cc4F)n(C)c(=O)c(C)c32)c1` was tested. Which % of control [8] did it give?
**A.** The % of control was 107%.

**Q.** For `N#Cc1cccc(-c2c[nH]c3ncnc(N4CCOCC4)c23)c1`, which % of control [9] is on record?
**A.** The % of control was 99%.

**Q.** With `CC[C@@H]1[C@H](F)C(=O)N[C@@H]1COc1nccc2cc(C(N)=O)c(OC)cc12` [ZIMLOVISERTIB] as the molecule, how does the % of inhibition [10] read?
**A.** Its % of inhibition is 1.19%.
